This note sets out measurements from the METLIN SMRT retention time set (Domingo-Almenara et al. 2019).

The structures appear in SMILES notation.

A short description of the data set: gradient 5% acetonitrile 3 min, to 50% in 2 min, to 85% in 15 min, held 3 min, 100 µL/min. As to conditions: column: Zorbax Extend-C18 2.1 x 50 mm; eluents: water / acetonitrile, 0.1% formic acid. In short, it runs like this: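 The mobile phases were water and acetonitrile, each with 0.1% formic acid, pumped at 100 μL/min through a Zorbax Extend-C18 column (2.1 × 50 mm, 1.8 μm). Pure standards were injected as mixtures of ~100 molecules and detected by a quadrupole time-of-flight mass spectrometer in positive and negative ionization mode. Retention time came from computationally picked adduct peaks, each inspected by hand.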
In turn, `Cc1ccc(NC(=O)C2(CCO)CCN(c3ncccn3)C2)cc1` (stereo not given) returned an RP-LC retention time of 630 s.

For the molecule `CCCN1CCN(c2cc(C(=O)O)c3cc(NS(=O)(=O)c4cccc(C)c4)ccc3n2)CC1`, the RP-LC retention time came out at 607 s.

In turn, `CN(Cc1ccccc1)C(=O)c1cc2c(n1C)CCN(Cc1cccc(F)c1)C2` came in with an RP-LC retention time of 681 s.

`NC(=O)Cn1c(Cc2ccccc2Cl)nc2ccccc21` returned an RP-LC retention time of 591 s.

In the case of `CCC(=O)NCC12CCCC=C1NC(=O)CC2` (stereo not given), the RP-LC retention time came to 597 s.

Take `Cc1cnc(C2CN(Cc3ccc(F)cc3F)C2)n1Cc1cccnc1`: the RP-LC retention time worked out at 544 s.

Molecule `CCOC(=O)c1noc2ncnc(Nc3ccc(CN4CCCCC4)cc3)c12` gave an RP-LC retention time of 593 s.

In turn, `Cc1csc(-c2cc(S(=O)(=O)NC(C)(C)C)cn2CC(=O)N2CCCCC2)n1` came in with an RP-LC retention time of 926 s.

The molecule `CCOc1ccccc1N1CCN(C(=O)C2CCCN(c3nccc4sc(C)cc34)C2)CC1` (stereo not given) showed an RP-LC retention time of 713 s.

`Cc1cc(=O)n(CC(=O)Nc2cc(F)ccc2C)c(N2CCOCC2)n1` registered an RP-LC retention time of 689 s.

In the case of `O=C(Cc1ccc(Cl)cc1)Nc1ccc(N2CCN(C3CCCC3)C2=O)nc1`, the RP-LC retention time turned out to be 834 s.

As for `CN1C(=O)Cc2cc(C(=O)N3CCN(c4ccccc4Cl)CC3)ccc21`, the RP-LC retention time stood at 825 s.

Turning to `O=C(c1cccs1)N1CCc2ccc([N+](=O)[O-])cc2C1`, the RP-LC retention time is 792 s.

As for `CC(C)c1cc(=O)n2c(n1)SCC2CC(=O)Nc1cccc(F)c1` (stereo not given), the RP-LC retention time was determined as 763 s.

Take `O=C(c1ccc(Cn2cncn2)cc1)N1CCN(c2ccccc2)CC1`: the RP-LC retention time is 707 s.

Consider `Cn1ncc2c3ccccc3n(CCCC(=O)NCCCN3CCCC3=O)c2c1=O`, for which the RP-LC retention time turned out to be 665 s.

For the molecule `CCN1C(=O)COc2ccc(-c3noc(CNS(=O)(=O)c4ccccc4)n3)cc21`, the RP-LC retention time amounted to 842 s.

As for `CCCN1CCCCc2cc(C(=O)NC3CCS(=O)(=O)C3)sc21` (stereo not given), the RP-LC retention time was 884 s.

For the molecule `CCOc1ccccc1CNC(=O)CN1CCN(Cc2ccccc2)C1=O`, the RP-LC retention time worked out at 848 s.

For `COc1ccc(CC(=O)Nc2ccc(-c3nc(C)no3)cc2)cc1OC`, the RP-LC retention time came to 735 s.

Molecule `Cc1noc(C)c1Cc1ccc(C(=O)NCC23CCCC=C2NC(=O)CC3)o1` (stereo not given) returned an RP-LC retention time of 705 s.

`Cc1ccccc1-c1nc2nc(C)c(CC(=O)N3CCCC3)c(C)n2n1` displayed an RP-LC retention time of 735 s.

Consider `O=S(=O)(c1ccc(F)cc1)N1CCC(n2cnnc2-c2ccccc2)CC1`, for which the RP-LC retention time stood at 774 s.

On to `CCOc1ccccc1-n1nnc(-c2nn3c(Cc4ccccc4)nnc3s2)c1C`, for which the RP-LC retention time turned out to be 857 s.

Consider `CCCn1nc(CNC(=O)c2ccoc2)c2ccccc21`, for which the RP-LC retention time amounted to 789 s.

Consider `CC1CCCN(CCCNC(=O)CN2C(=O)CCc3cc(S(=O)(=O)N4CCCCC4)ccc32)C1` (stereo not given), for which the RP-LC retention time worked out at 638 s.

`CCCNC(=O)N1CC(Oc2ccc(-c3nc(-c4ccccc4)no3)cc2)C1` displayed an RP-LC retention time of 861 s.

The molecule `CCCSCCCNC(=O)C1CCCN(c2nc3ccccc3n(Cc3ccccc3)c2=O)C1` (stereo not given) yielded an RP-LC retention time of 1200 s.

The molecule `Cn1cc(S(=O)(=O)N2CCCCC2)cc1C(=O)N1CCN(c2ccc(F)cc2)CC1` gave an RP-LC retention time of 940 s.

`CC(C)c1ccc2c(c1)-c1ccccc1S(=O)(=O)N2CC(=O)NCc1ccccn1` returned an RP-LC retention time of 757 s.

With `CCCN(CC(=O)N(Cc1ccco1)CC1CCCO1)C(=O)Cc1ccc(F)cc1` (stereo not given), the RP-LC retention time turned out to be 872 s.

Molecule `COCCN1C(=O)CS(=O)C12CCN(C(=O)c1ccsc1)CC2` (stereo not given) displayed an RP-LC retention time of 593 s.

With `CC(C)(C)n1nc2c(c1NC(=O)c1nc3ccccc3s1)CSC2`, the RP-LC retention time turned out to be 952 s.

With `CCCC(=O)Nc1ccc(-n2cnc(C(=O)NCC)c2)nc1`, the RP-LC retention time worked out at 634 s.

The molecule `COc1ccc(OC)c(-c2[nH]ncc2CN2CC(F)(F)C[C@H]2CN2CCCCCC2)c1` showed an RP-LC retention time of 578 s.

`O=C(CCCc1ccccc1)N1C[C@H]2CNC(=O)[C@]23CCCC[C@@H]13` returned an RP-LC retention time of 770 s.

In turn, `COc1ccc(NC(=O)N2CCN(Cc3cn(C)c4ccccc34)CC2)cc1` displayed an RP-LC retention time of 658 s.

For `CC(C)c1nc(-n2cccc2)sc1C(=O)NCCc1ccc(S(N)(=O)=O)cc1`, the RP-LC retention time came out at 924 s.

On to `COc1cc(OC)cc(N2C=C(C#N)S(=O)(=O)c3ccc(C)cc32)c1`, for which the RP-LC retention time was found to be 948 s.

On to `O=C(NCCOc1ccc2c(c1)OCO2)c1c(F)cccc1F`, for which the RP-LC retention time was found to be 760 s.

The molecule `CCCCN(C)C(=O)CCC1CCN(c2cc(NC3CC3)ncn2)CC1` came in with an RP-LC retention time of 654 s.

In turn, `O=C(c1ccc(F)c(Cl)c1)N1CCN(c2cc(-c3ccc(F)cc3)[nH]n2)CC1` came in with an RP-LC retention time of 894 s.

`Cn1cc(CCN2CCN(S(=O)(=O)c3ccccc3F)CC2)c2cccnc21`: the RP-LC retention time turned out to be 608 s.

Turning to `CCn1c(SC)nnc1-c1nn(C)c2c1CN(C(=O)c1ccc(F)cc1)CC2`, the RP-LC retention time turned out to be 763 s.

As to `O=C(Nc1cnc(N2CCCCCC2)nc1)c1ccsc1`, the RP-LC retention time came out at 822 s.

With `CC1CCN(C(=O)CN2C(=O)C3CCCCN3c3ccc(C(=O)N(C)C)cc32)CC1` (stereo not given), the RP-LC retention time came out at 752 s.

`Cc1cc(-c2nnc(-c3ccco3)o2)c(C)n1CC(=O)Nc1cc(F)cc(F)c1` gave an RP-LC retention time of 929 s.

For `Cc1cc(NC(=O)Cn2nc(N3CCCC3)c3ccccc3c2=O)ccc1Br`, the RP-LC retention time came to 1060 s.

With `COCCN(CCOC)C(=O)Cc1csc(NC(=O)Nc2ccc(Cl)cc2)n1`, the RP-LC retention time came to 733 s.

The molecule `CCNC(=O)N1CCc2c([nH]c3ccccc23)C12C(=O)N(C)c1ccccc12` (stereo not given) had an RP-LC retention time of 756 s.

In turn, `CCOc1ccc(NC(=O)CSc2ccc(N3CCCC(C(=O)NC4CC4)C3)nn2)cc1` (stereo not given) had an RP-LC retention time of 652 s.

For `CN1C(=O)CS(=O)C12CCN(C(=O)Nc1ccccc1)CC2` (stereo not given), the RP-LC retention time was determined as 599 s.

In the case of `CCOc1ccc(S(=O)(=O)N2CCCC(C(=O)Nc3cccc(C)c3)C2)cc1` (stereo not given), the RP-LC retention time stood at 1050 s.

In turn, `CCC(=O)Nc1ccc(C2(C(=O)NCCN3CCCC3)CCCCC2)cc1` came in with an RP-LC retention time of 606 s.

As to `CCN1CCN(c2cc(C)c3cc(NC(=O)c4ccc(Br)cc4)ccc3n2)CC1`, the RP-LC retention time was 610 s.

Turning to `Cn1c(=O)c(N2CCC(NC(=O)Nc3ccc(Cl)cc3)CC2)nc2cccnc21`, the RP-LC retention time turned out to be 907 s.

`O=C(NCCC1CCN(C(=O)Nc2cc(F)ccc2F)CC1)c1cccs1` gave an RP-LC retention time of 818 s.

For the molecule `COc1cccc(S(=O)(=O)N2CCC([C@H]3[C@@H](OC)C(=O)N3C(C)C)CC2)c1`, the RP-LC retention time is 868 s.

`Cc1ccc(C(=O)N2CCC(COc3ccc(C(=O)NC(C)C)cc3)CC2)cc1C` displayed an RP-LC retention time of 916 s.

In the case of `CCOc1ccccc1-c1nc(-c2ccc3nnn(CC)c3c2)no1`, the RP-LC retention time amounted to 1110 s.

In turn, `O=C(CSc1nnc2c3sc(N4CCCC4)nc3ncn12)Nc1ccc(F)c(Cl)c1` displayed an RP-LC retention time of 890 s.

With `COc1ccc(-c2nc3cnccn3c2Nc2cc(C)cc(C)c2)cc1OC`, the RP-LC retention time stood at 874 s.

Turning to `O=C(NCc1cccs1)C1CCCN(C(=O)c2cc(-c3ccccn3)n[nH]2)C1` (stereo not given), the RP-LC retention time was determined as 641 s.

As for `CCN1CCN(S(=O)(=O)c2cc(-c3nc(C)cs3)n(CC(=O)N3CCCCC3)c2)CC1`, the RP-LC retention time came to 675 s.

As for `CCn1cc(C(=O)Nc2ccc(C)cc2C)c2cccnc21`, the RP-LC retention time was 962 s.

Molecule `NC(=O)c1ccccc1NC(=O)CCCn1cnc(-c2ccc(F)cc2)cc1=O` registered an RP-LC retention time of 666 s.

`O=C(CN1CCCc2nc(C3CC3)ncc2C1=O)NC1CC1` registered an RP-LC retention time of 604 s.

For the molecule `CCc1nn2c(CNC(=O)c3ccc(F)c(F)c3)c(-c3ccccc3)nc2s1`, the RP-LC retention time worked out at 661 s.

For `N#Cc1ccc(C(=O)N2CC(n3cc(COCC4CC4)nn3)C2)cc1`, the RP-LC retention time stood at 691 s.

Molecule `O=C(NC1CC1)C1CCCN(c2ccc3cc(S(=O)(=O)N4CCCCC4)ccc3n2)C1` (stereo not given) registered an RP-LC retention time of 683 s.

Consider `CC(=O)Nc1nc(N2CCC(C(=O)NCc3cccnc3)CC2)sc1C(=O)N1CCCC1`, for which the RP-LC retention time was 581 s.

The molecule `COc1cccc(-n2c(=O)c(C(=O)NCCc3cccs3)c(O)c3cccnc32)c1` came in with an RP-LC retention time of 1160 s.

Molecule `Cc1cc(OCC(=O)N2CCC[C@H]2C(=O)O)c2c3c(c(=O)oc2c1)CCCC3` had an RP-LC retention time of 754 s.

`Cc1ccc(Nc2c(-c3ccccc3O)nc3ncccn23)cc1Cl` returned an RP-LC retention time of 738 s.

For `Cc1nc(-c2ccc(N3CCN(C(=O)c4ccco4)CC3)nc2)sc1C`, the RP-LC retention time was determined as 759 s.

With `O=C(Cn1c2ccccc2n2c(=O)cc(-c3ccc(F)cc3)nc12)NCc1ccco1`, the RP-LC retention time worked out at 912 s.

As for `COc1cccc(NC(=O)c2cc(C(C)(C)C)n3nccc3n2)c1`, the RP-LC retention time stood at 1250 s.

`CCN(CC)C(=O)c1ccc2c(c1)ncn2CCNC(=O)Nc1ccc(Br)cc1` showed an RP-LC retention time of 644 s.

The molecule `O=C(NCc1ccc(F)cc1F)c1nnn2c1COC(c1ccc(Cl)cc1)C2` (stereo not given) displayed an RP-LC retention time of 1040 s.

Molecule `CCCn1c(=O)c(N2CCN(C(=O)CC3CCCC3)CC2)nc2ccccc21` displayed an RP-LC retention time of 1130 s.
